Reference: patent publication US9695155B2, “Herbicidal substituted pyrimidinyloxy benzene compounds” (E. I. DU PONT DE NEMOURS AND COMPANY, priority 2013, dated 2017)

Columns and labels:
field violet [1] = experiment: Test D preemergence; assay type: in vivo, Viola arvensis
Text: (§1) Seeds of plant species selected from bluegrass (annual bluegrass, Poa annua), blackgrass (Alopecurus myosuroides), canarygrass (littleseed canarygrass, Phalaris minor), chickweed (common chickweed, Stellaria media), galium (catchweed bedstraw, Galium aparine), bromegrass, downy (downy bromegrass, Bromus tectorum), field poppy (Papaver rhoeas), field violet (Viola arvensis), green foxtail (Setaria viridis), deadnettle (henbit deadnettle, Lamium amplexicaule), Italian ryegrass (Lolium multiflorum), kochia (Kochia scoparia), lambsquarters (Chenopodium album), oilseed rape (Brassica napus), pigweed (Amaranthus retroflexus), chamomile (scentless chamomile, Matricaria inodora), Russian thistle (Salsola kali), speedwell (bird's-eye speedwell, Veronica persica), spring barley (Hordeum vulgare), spring wheat (Triticum aestivum), wild buckwheat (Polygonum convolvulus), wild mustard (Sinapis arvensis), wild oat (Avena fatua), wild radish (Raphanus raphanistrum), windgrass (Apera spica-venti), winter barley (Hordeum vulgare), and winter wheat (Triticum aestivum) were planted into a silt loam soil and treated preemergence with test chemicals formulated in a non-phytotoxic solvent mixture which included a surfactant.
(§2) At the same time, these species were planted in pots containing Redi-Earth® planting medium (Scotts Company, 14111 Scottslawn Road, Marysville, Ohio 43041) comprising spaghnum peat moss, vermiculite, wetting agent and starter nutrients and treated with postemergence applications of the test chemicals formulated in the same manner. Plants ranged in height from 2 to 18 cm (1- to 4-leaf stage). Treated plants and controls were maintained in a controlled growth environment for 7 to 21 days after which time all species were compared to controls and visually evaluated. Plant response ratings, summarized in Table D, are based on a scale of 0 to 100 where 0 is no effect and 100 is complete control. A dash (-) response means no test result.

spring wheat [2] = experiment: Test D preemergence; assay type: in vivo, Triticum aestivum
Text: as §1, §2

winter wheat [3] = experiment: Test D preemergence; assay type: in vivo, Triticum aestivum
Text: as §1, §2

wild oat = experiment: Test D preemergence; assay type: in vivo, Avena fatua
Text: as §1, §2

wild radish = experiment: Test D preemergence; assay type: in vivo, Raphanus raphanistrum
Text: as §1, §2

field violet [4] = experiment: Test D postemergence; assay type: in vivo, Viola arvensis
Text: as §1, §2

oilseed rape = experiment: Test D postemergence; assay type: in vivo, Brassica napus
Text: as §1, §2

pigweed = experiment: Test D postemergence; assay type: in vivo, Amaranthus retroflexus
Text: as §1, §2

spring wheat [5] = experiment: Test D postemergence; assay type: in vivo, Triticum aestivum
Text: as §1, §2

winter wheat [6] = experiment: Test D postemergence; assay type: in vivo, Triticum aestivum
Text: as §1, §2

[7] = 16 g ai/ha, scale 0 (no effect) to 100 (complete control)
[8] = 31 g ai/ha, scale 0 (no effect) to 100 (complete control)
[9] = 31 g ai/ha, scale 0 to 100 (0 no effect, 100 complete control)
[10] = 62 g ai/ha, scale 0 to 100 (0 no effect, 100 complete control)
[11] = 125 g ai/ha, scale 0 to 100 (0 no effect, 100 complete control)

## FCc1cccc(Oc2ncc(Cl)cn2)c1-n1cc(I)cn1 [Compound 245]
Field violet [1]; [7]
  Plant response rating, Field Violet: 55
Field violet [1]; 31 g ai/ha, scale 0-100
  Plant response rating, Field Violet: 95
Field violet [1]; 62 g ai/ha, scale 0-100
  Plant response rating, Field Violet: 100
Field violet [1]; 125 g ai/ha, scale 0-100
  Plant response rating, Field Violet: 100
Spring wheat [2]; [7]
  Plant response rating, Wheat, Spring: 5
Spring wheat [2]; [8]
  Plant response rating, Wheat, Spring: 10
Spring wheat [2]; 125 g ai/ha, scale 0-100
  Plant response rating, Wheat, Spring: 20
Winter wheat [3]; [7]
  Plant response rating, Wheat, Winter: 10
Winter wheat [3]; [8]
  Plant response rating, Wheat, Winter: 15
Winter wheat [3]; 125 g ai/ha, scale 0-100
  Plant response rating, Wheat, Winter: 30
Wild oat; [7]
  Plant response rating, Oat, Wild: 0
Wild oat; 31 g ai/ha, scale 0-100
  Plant response rating, Oat, Wild: 5
Wild oat; 62 g ai/ha, scale 0-100
  Plant response rating, Oat, Wild: 20
Wild oat; 125 g ai/ha, scale 0-100
  Plant response rating, Oat, Wild: 15
Wild radish; [7]
  Plant response rating, Radish, Wild: 0
Wild radish; [8]
  Plant response rating, Radish, Wild: 0
Wild radish; 125 g ai/ha, scale 0-100
  Plant response rating, Radish, Wild: 85
Field violet [4]; 16 g ai/ha, scale 0-100
  Plant response rating, Field Violet: 25
Field violet [4]; [9]
  Plant response rating, Field Violet: 80
Field violet [4]; [10]
  Plant response rating, Field Violet: 90
Field violet [4]; [11]
  Plant response rating, Field Violet: 90
Oilseed rape; 16 g ai/ha, scale 0-100
  Plant response rating, Oilseed Rape: 30
Oilseed rape; [9]
  Plant response rating, Oilseed Rape: 45
Oilseed rape; [10]
  Plant response rating, Oilseed Rape: 60
Oilseed rape; [11]
  Plant response rating, Oilseed Rape: 75
pigweed; 16 g ai/ha, scale 0-100
  Plant response rating, Pigweed: 95
pigweed; [9]
  Plant response rating, Pigweed: 95
pigweed; [10]
  Plant response rating, Pigweed: 100
pigweed; [11]
  Plant response rating, Pigweed: 100
Spring wheat [5]; 16 g ai/ha, scale 0-100
  Plant response rating, Wheat, Spring: 10
Spring wheat [5]; [9]
  Plant response rating, Wheat, Spring: 10
Spring wheat [5]; [10]
  Plant response rating, Wheat, Spring: 10
Spring wheat [5]; [11]
  Plant response rating, Wheat, Spring: 20
Winter wheat [6]; 16 g ai/ha, scale 0-100
  Plant response rating, Wheat, Winter: 5
Winter wheat [6]; [9]
  Plant response rating, Wheat, Winter: 10
Winter wheat [6]; [10]
  Plant response rating, Wheat, Winter: 10
Winter wheat [6]; [11]
  Plant response rating, Wheat, Winter: 10

## N#Cc1cccc(Oc2ncc(Cl)cn2)c1-n1cc(Br)cn1 [Compound 52, 2-(4-bromo-1H-pyrazol-1-yl)-3-[(5-chloro-2-pyrimidinyl)oxy]benzonitrile]
Field violet [1]; Viola arvensis, pre-emergence, 31 g ai/ha, scale 0-100, read-out: Plant response rating, Field Violet
  pest or weed control at 31 g/ha: 75%
Field violet [1]; Viola arvensis, pre-emergence, 62 g ai/ha, scale 0-100, read-out: Plant response rating, Field Violet
  pest or weed control at 62 g/ha: 95%
Field violet [1]; Viola arvensis, pre-emergence, 125 g ai/ha, scale 0-100, read-out: Plant response rating, Field Violet
  pest or weed control at 125 g/ha: 100%
Field violet [1]; Viola arvensis, pre-emergence, 250 g ai/ha, scale 0-100, read-out: Plant response rating, Field Violet
  pest or weed control at 250 g/ha: 100%
Spring wheat [2]; Triticum aestivum, pre-emergence, 31 g ai/ha, scale 0 (no effect) to 100 (complete control), read-out: Plant response rating, Wheat, Spring
  plant injury at 31 g/ha: 0%
Spring wheat [2]; Triticum aestivum, pre-emergence, 62 g ai/ha, scale 0-100, read-out: Plant response rating, Wheat, Spring
  plant injury at 62 g/ha: 0%
Spring wheat [2]; Triticum aestivum, pre-emergence, 125 g ai/ha, scale 0-100, read-out: Plant response rating, Wheat, Spring
  plant injury at 125 g/ha: 0%
Spring wheat [2]; Triticum aestivum, pre-emergence, 250 g ai/ha, scale 0-100, read-out: Plant response rating, Wheat, Spring
  plant injury at 250 g/ha: 30%
Winter wheat [3]; Triticum aestivum, pre-emergence, 31 g ai/ha, scale 0 (no effect) to 100 (complete control), read-out: Plant response rating, Wheat, Winter
  plant injury at 31 g/ha: 0%
Winter wheat [3]; Triticum aestivum, pre-emergence, 62 g ai/ha, scale 0-100, read-out: Plant response rating, Wheat, Winter
  plant injury at 62 g/ha: 0%
Winter wheat [3]; Triticum aestivum, pre-emergence, 125 g ai/ha, scale 0-100, read-out: Plant response rating, Wheat, Winter
  plant injury at 125 g/ha: 25%
Winter wheat [3]; Triticum aestivum, pre-emergence, 250 g ai/ha, scale 0-100, read-out: Plant response rating, Wheat, Winter
  plant injury at 250 g/ha: 35%
Wild oat; Avena fatua, pre-emergence, 31 g ai/ha, scale 0-100, read-out: Plant response rating, Oat, Wild
  pest or weed control at 31 g/ha: 0%
Wild oat; Avena fatua, pre-emergence, 62 g ai/ha, scale 0-100, read-out: Plant response rating, Oat, Wild
  pest or weed control at 62 g/ha: 0%
Wild oat; Avena fatua, pre-emergence, 125 g ai/ha, scale 0-100, read-out: Plant response rating, Oat, Wild
  pest or weed control at 125 g/ha: 0%
Wild oat; Avena fatua, pre-emergence, 250 g ai/ha, scale 0-100, read-out: Plant response rating, Oat, Wild
  pest or weed control at 250 g/ha: 20%
Wild radish; Raphanus raphanistrum, pre-emergence, 31 g ai/ha, scale 0 (no effect) to 100 (complete control), read-out: Plant response rating, Radish, Wild
  pest or weed control at 31 g/ha: 30%
Wild radish; Raphanus raphanistrum, pre-emergence, 62 g ai/ha, scale 0-100, read-out: Plant response rating, Radish, Wild
  pest or weed control at 62 g/ha: 80%
Wild radish; Raphanus raphanistrum, pre-emergence, 125 g ai/ha, scale 0-100, read-out: Plant response rating, Radish, Wild
  pest or weed control at 125 g/ha: 95%
Wild radish; Raphanus raphanistrum, pre-emergence, 250 g ai/ha, scale 0-100, read-out: Plant response rating, Radish, Wild
  pest or weed control at 250 g/ha: 100%
Field violet [4]; Viola arvensis, post-emergence, 31 g ai/ha, scale 0 to 100 (0 no effect, 100 complete control), read-out: Plant response rating, Field Violet
  pest or weed control at 31 g/ha: 100%
Field violet [4]; Viola arvensis, post-emergence, 62 g ai/ha, scale 0 to 100 (0 no effect, 100 complete control), read-out: Plant response rating, Field Violet
  pest or weed control at 62 g/ha: 100%
Field violet [4]; Viola arvensis, post-emergence, 125 g ai/ha, scale 0 to 100 (0 no effect, 100 complete control), read-out: Plant response rating, Field Violet
  pest or weed control at 125 g/ha: 100%
Field violet [4]; Viola arvensis, post-emergence, 250 g ai/ha, scale 0 to 100 (0 no effect, 100 complete control), read-out: Plant response rating, Field Violet
  pest or weed control at 250 g/ha: 100%
Oilseed rape; Brassica napus, post-emergence, 31 g ai/ha, scale 0 to 100 (0 no effect, 100 complete control), read-out: Plant response rating, Oilseed Rape
  plant injury at 31 g/ha: 55%
Oilseed rape; Brassica napus, post-emergence, 62 g ai/ha, scale 0 to 100 (0 no effect, 100 complete control), read-out: Plant response rating, Oilseed Rape
  plant injury at 62 g/ha: 65%
Oilseed rape; Brassica napus, post-emergence, 125 g ai/ha, scale 0 to 100 (0 no effect, 100 complete control), read-out: Plant response rating, Oilseed Rape
  plant injury at 125 g/ha: 85%
Oilseed rape; Brassica napus, post-emergence, 250 g ai/ha, scale 0 to 100 (0 no effect, 100 complete control), read-out: Plant response rating, Oilseed Rape
  plant injury at 250 g/ha: 95%
pigweed; Amaranthus retroflexus, post-emergence, 31 g ai/ha, scale 0 to 100 (0 no effect, 100 complete control), read-out: Plant response rating, Pigweed
  pest or weed control at 31 g/ha: 80%
pigweed; Amaranthus retroflexus, post-emergence, 62 g ai/ha, scale 0 to 100 (0 no effect, 100 complete control), read-out: Plant response rating, Pigweed
  pest or weed control at 62 g/ha: 85%
pigweed; Amaranthus retroflexus, post-emergence, 125 g ai/ha, scale 0 to 100 (0 no effect, 100 complete control), read-out: Plant response rating, Pigweed
  pest or weed control at 125 g/ha: 85%
pigweed; Amaranthus retroflexus, post-emergence, 250 g ai/ha, scale 0 to 100 (0 no effect, 100 complete control), read-out: Plant response rating, Pigweed
  pest or weed control at 250 g/ha: 95%
Spring wheat [5]; Triticum aestivum, post-emergence, 31 g ai/ha, scale 0 to 100 (0 no effect, 100 complete control), read-out: Plant response rating, Wheat, Spring
  plant injury at 31 g/ha: 5%
Spring wheat [5]; Triticum aestivum, post-emergence, 62 g ai/ha, scale 0 to 100 (0 no effect, 100 complete control), read-out: Plant response rating, Wheat, Spring
  plant injury at 62 g/ha: 10%
Spring wheat [5]; Triticum aestivum, post-emergence, 125 g ai/ha, scale 0 to 100 (0 no effect, 100 complete control), read-out: Plant response rating, Wheat, Spring
  plant injury at 125 g/ha: 10%
Spring wheat [5]; Triticum aestivum, post-emergence, 250 g ai/ha, scale 0 to 100 (0 no effect, 100 complete control), read-out: Plant response rating, Wheat, Spring
  plant injury at 250 g/ha: 15%
Winter wheat [6]; Triticum aestivum, post-emergence, 31 g ai/ha, scale 0 to 100 (0 no effect, 100 complete control), read-out: Plant response rating, Wheat, Winter
  plant injury at 31 g/ha: 10%
Winter wheat [6]; Triticum aestivum, post-emergence, 62 g ai/ha, scale 0 to 100 (0 no effect, 100 complete control), read-out: Plant response rating, Wheat, Winter
  plant injury at 62 g/ha: 15%
Winter wheat [6]; Triticum aestivum, post-emergence, 125 g ai/ha, scale 0 to 100 (0 no effect, 100 complete control), read-out: Plant response rating, Wheat, Winter
  plant injury at 125 g/ha: 20%
Winter wheat [6]; Triticum aestivum, post-emergence, 250 g ai/ha, scale 0 to 100 (0 no effect, 100 complete control), read-out: Plant response rating, Wheat, Winter
  plant injury at 250 g/ha: 25%
